Measured values taken from patent US5665769A, “Pharmaceutical composition for preventing and treating retinal diseases” (Senju Pharmaceuticals Co., Ltd., priority 1993, dated 1997).

Test system: bovine retinal homogenate
Assay: Ferrous chloride-induced peroxidation of bovine retinal homogenate in vitro, TBA value (Experiment 1 (A))
Type: biochemical
Settings: 10^-4 M
Protocol: (A) In vitro experiment using a bovine retinal homogenate:
Effects of 2-O-octadecylascorbic acid on the peroxidation induced by adding ferrous chloride to a bovine retinal homogenate were examined.
(1) Retinae were removed from bovine eyeballs (1/2 eye). Physiological saline was added to the retinae to prepare bovine retinal homogenates.
(2) Ferrous chloride (0.5 mM, dissolved in distilled water) was added to each of the retinal homogenates obtained in the above. Further, 2-O-octadecylascorbic acid and α-tocopherol were added to the resulting homogenates to final concentrations of the reaction mixtures of 10^-4 M, respectively. Further, distilled water was added to each of the homogenates to adjust a total volume to 1 ml. 2-O-octadecylascorbic acid and α-tocopherol were dissolved and diluted with ethanol. Thus, the final concentrations of ethanol in all of the reaction mixtures were adjusted to 1%. Then, the mixtures were subjected to reaction at 37° C. for 1 hour.
(3) 0.35% thiobarbituric acid (hereinafter referred to as TBA) reagent (50% aqueous acetic acid solution)(1 ml) was added to the reaction mixtures or standard solutions of the retinal homogenates obtained in the above (2). The mixtures were subjected to reaction in boiling water at 100° C. for 1 hour. After water cooling, n-butanol (2 ml) was added, and the mixtures were shaken for 5 minutes and centrifuged at 3000 rpm for 10 minutes. Fluorescence intensities (excitation wave length: 515 nm, emission wave length: 553 nm) were determined for the n-butanol layer. Proteins were determined using Bio-Rad Protein Assay Kit (trade name).

**Q.** Which “Retina: TBA value” (0.5 mM ferrous chloride, 37° C., 1 hour, mean ± S.D., n=3, p < 0.001 vs control) does the source give for `Cc1c(C)c2c(c(C)c1O)CCC(C)(CCCC(C)CCCC(C)CCCC(C)C)O2` (stereo not drawn) [α-Tocopherol, α-tocopherol, reference compound] here?
**A.** The value was 2.38 ± 0.12 nM malondialdehyde/mg protein.

**Q.** What about the Inhibitory ratio (ferrous chloride control = 0, blank = 100, 60 min) of the same compound?
**A.** The Inhibitory ratio was 61.6%.
